Reference: article PMC10949195, “Exponential Combination of a and e/g Intracellular Peptide Libraries Identifies a Selective ATF3 Inhibitor” (ACS Chemical Biology, 2024)

T1: ATF3 (Homo sapiens, UniProt P18847)
T1 construct: We focus on the selective targeting of the ATF3 leucine zipper dimerization domain using intracellular peptide library screening; made in house; host or cells: chemical solid-phase peptide synthesis (no expression host)
T1 sequence (P18847 110-143): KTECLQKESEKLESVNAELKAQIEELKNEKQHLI

T2: ATF3W_aeg (synthetic construct)
T2 chain: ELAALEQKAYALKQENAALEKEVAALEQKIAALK


Experiments:
[1] = test system: M2 macrophages differentiated from the human THP-1 monocytic cell line; assay: THP-1 polarization assay and CCL-4 ELISA; type: cell-based; details: M2 macrophages from THP-1 (IL-4 polarized); 20 μM peptide with NLS-TAT appendage; 48 h; versus untreated
From the text: ATF3 is a transcriptional repressor that regulates both the extent and duration of pro-inflammatory gene expression.[17] Specifically, ATF3 has been implicated in the transcriptional repression of chemokines including chemokine (C–C motif) ligand 4 (CCL4),[18] also known as macrophage inflammatory protein (MIP-1β), which promotes recruitment of additional immune cells to inflamed tissues. In the context of cancer, ATF3 activity counters antitumor immunity and promotes tumor growth. We therefore explored the effect of the ATF3W-aeg antagonist peptide on CCL4 expression in M2 anti-inflammatory macrophages differentiated from the human THP-1 monocytic cell line. […]
Figure 10 ATF3W-aeg peptide stimulates expression of pro-inflammatory cytokine in M2 macrophages. CCL4 protein levels were measured by ELISA from supernatants of M2 macrophage cultures treated with either 20 μM ATF3W-aeg or negative control peptide (****p < 0.0001). […]
THP-1 cells were seeded in 12-well format at a concentration of 5 × 10^5 cells/well and treated with 7.5 ng/mL Phorbol 12-Myristate 13-Acetate (PMA, Sigma-Aldrich) in RPMI media supplemented with 10% FBS and 55 μM β-mercaptoethanol (BME). […] After 48 h, supernatants were collected and clarified by centrifugation, and the CCL-4 concentration was assessed by ELISA (MIP-1b Human Instant ELISA Kit, ThermoFisher Scientific) according to the manufacturer’s protocol.

[2] = target: T1, ATF3; assay: CD thermal denaturation of peptide mixed 1:1 with ATF3; type: binding; details: peptide incubated with ATF3; CD signal at 222 nm, 1 °C increments; 150 μM total peptide; 10 mM potassium phosphate, 100 mM potassium fluoride, pH 7.0; two-state denaturation model
From the text: Following the observed significant increase in global secondary structure content for the ATF3-ATF3W_aeg complex relative to component peptides (Figure 6), we next analyzed the stability of the complex by undertaking thermal denaturation experiments (Figure 7). […] Moreover, consistent with spectral data, the clear increase from the average profile of the component peptides relative to that of the measured is most pronounced in the combined construct (Figure 7, red hash vs black). This provides robust additional evidence for a preferential interaction between ATF3 and ATF3W_aeg that is improved over either the core a or electrostatic e/g constructs.
Shown are thermal stabilities of peptide pairs measured via temperature dependence of the CD signal at 222 nm. The thermal denaturation profiles for (a) ATF3-ATF3W_a, (b) ATF3-ATF3W_eg, and (c) ATF3-ATF3W_aeg show a substantial increase in the transition midpoint (Tm = 59 °C) relative to component peptides (black vs red hash). Experiments were performed in 10 mM potassium phosphate and 100 mM potassium fluoride (pH 7.0). All spectra were recorded at 1 °C increments at a total peptide concentration of 150 μM and fitted to a two-state denaturation model.
Thermal denaturation experiments were performed at 150 μM total protein concentration in 10 mM potassium phosphate and 100 mM potassium fluoride, pH 7, using an Applied Photophysics Chirascan CD instrument (Leatherhead, UK) as previously described.[23]

[3] = target: T2, ATF3W_aeg; assay: ITC

Molecule | transition midpoint (Tm) of heterodimer with ATF3 [2] [°C] | further results
Ac-KAAALKQKAYALKQQIAALKKQVAALKQKIAALKPKKKRKVYGRKKRRQRRR-NH2 [Fra1W-NLS TAT, reference compound] |  | effect on CCL4 expression (protein in supernatant, ELISA) [1]: no effect
QLAALQQQAYALQQQNAALQKQVAALQQQIAALQ [ATF3W_a] | 26 | 
EAAALEQKIYALKQEAAALEKEIAALEQKAAALK [ATF3W_eg] | 52 | 
TECLQKESEKLESVNAELKAQIEELKNEKQHLIYM [ATF3 leucine zipper] |  | Kd [3]: 151 nM
